What was measured:
c-Src = system: c-Src
Procedure: Two different Gα13 siRNA target sequences were used: siRNA #1, 5′-[…] (SEQ ID NO: 56); siRNAi #2, 5′-[…] (SEQ ID NO: 57). Scrambled siRNA sequence is: 5′-[…]-3′ (SEQ ID NO: 58). These sequences are conserved in hamsters and mice. Lentivirus was prepared by co-transfection of pLL3.7-scrambled siRNA or pLL3.7-Gα13 siRNA (#1 and #2) with pLP1, pLP2 and pLP/VSVG plasmids (Invitrogen) into ˜90% confluent 293FT cells using Lipofectamine 2000. 48 hours after transfection, cell culture medium containing virus was filtered, titered and stored at −80° C. Bone manow cells from 6-8 week old healthy C57/BL mice were isolated aseptically from femurs and tibias. Stem cells were negatively selected by MACS Lineage cell depletion kit (Miltenyi Biotec) and cultured in RPMI 1640 complete medium with 10 ng/ml interleukin-3, 10 ng/ml interleukin-6, 10 ng/ml granulocyte-macrophage colony stimulating factor (GM-CSF), and 100 ng/ml stem cell factor (SCF). 50 multiplicity of infection (MOI) lenti-virus was used to infect mice bone marrow stem cells twice with 6 μg/ml polybrene. 48 hours after infection, 5×10^6 stem cells resuspended in PBS were transplanted by retrobulbar injection into lethally irradiated (10.5 Gy) C57/BL mice one day after irradiation (S11). The siRNA-resistant mutants of Gα13 were generated by PCR.

RhoA [1] = settings: mouse platelets from siRNA-transfected stem cells
Procedure: (FIG. 6B) Scrambled siRNA, Gα13 siRNA #1- and Gα13 siRNA #2-transfected platelets were allowed to adhere to immobilized fibrinogen for the indicated time, and analyzed for c-Src activation and RhoA activity.
(§1) Platelets in modified Tyrode's buffer or adherent on immobilized fibrinogen were lysed quickly in 0.8 ml lysis buffer (50 mM Tris, pH 7.4, 10 mM MgCl2, 500 mM NaCl, 1% Triton X-100, 0.1% SDS, 0.5% deoxycholate, 10 μg/ml each of aprotinin and leupeptin, 1 mM phenylmethylsulfonyl fluoride, and 200 μM sodium vanadate). Lysates were cleared by centrifugation at 18,000 g for 2 minutes at 4° C., and the supernatant was incubated for 1 hour with 30 μg purified GST-Rhotekin RhoA-binding domain fusion protein (GST-RBD) bound to glutathione-Sepharose beads (S10). Samples were washed three times using washing buffer (50 mM Tris, pH 7.4, 10 mM MgCl2, 150 mM NaCl, 1% Triton X-100) and then immunoblotted with an anti-RhoA monoclonal antibody. Cell lysates were also immunoblotted with anti-RhoA as loading control.

mouse platelets = assay: Mouse platelet spreading on immobilized fibrinogen; assay type: cell-based
human platelets [2] = assay type: cell-based
Procedure: The clots were photographed at various time points. […] Statistical significance was determined using t-test.
Studies using human platelets were approved by institutional review board of University of Illinois at Chicago.
Coverslides were pre-coated with 100 μg/ml fibrinogen and blocked with 5% BSA in PBS. 300 μl αIIbβ3-expressing CHO cells (expressing WT or mutant integrins; 1×10^5/ml) or platelets (1×10^7/ml) suspended in Tyrode's buffer were added to coverslides and incubated at 37° C. for various lengths of time. Cells were fixed with 4% paraformaldehyde (PFA) for 10 minutes and permeabilized with 0.1% Triton X-100 in PBS for 2 minutes. After blocking with 5% BSA for 10 minutes, coverslides were incubated with 0.2 μg/ml mAb 15, or Alexa Fluor-546 conjugated phalloidin. For mouse platelets re-express wild type β3 or the AAA mutant of β3, β3 was immuno-stained with the anti-β3 monoclonal antibody MAb 15 and Alexa Fluor-546 conjugated phalloidin. The slides were scanned with a Zeiss LSM5 10 META confocal microscope as previously described^11

[3] = C57BL/6 mice, FeCl3 carotid artery injury, compared to scrambled control ERAFEE
Procedure: In this study, adult mice are anesthetized by intraperitoneal injection of pentobarbital (120 mg/kg). The left common carotid artery is surgically exposed and a miniature Doppler flow probe (Model 0.5VB; Transonic Systems, Ithaca, N.Y.) is placed on the surface of the artery. After adding 0.9% sodium chloride solution in the surgical wound to allow Doppler monitoring, baseline blood flow is recorded using a Transonic flowmeter. Thereafter, sodium chloride solution is removed and filter paper (round, 1.0 mm in diameter) saturated with 10% FeCl3 is applied to the surface of the carotid artery immediately proximal to the flow probe. After 3 minutes, the filter paper is removed, saline solution is again administered to the wound, and carotid blood flow is monitored. If occlusive thrombosis occurs to the injured carotid artery, blood flow is reduced to zero. ExE motif peptide micelles and controls are injected i.v. via the tail vein in C57BL/6 mice, then tested for occlusive thrombosis using this model.

human platelets [4] = system: human platelets
Procedure: Platelet aggregation assays were carried out as follows: Platelet aggregation and secretion was measured in a turbidometric platelet aggregometer (Chronolog) at 37° C. with stirring (1000 rpm). Washed platelets (3×10^8/ml) in modified Tyrode's buffer were stimulated with thrombin (Enzyme Research Laboratories). For talin knockdown platelet aggregation assay stimulated with manganese and ADP, manganese and ADP was mixed prior to experiment to achieve final concentration of 1 mM manganese and 5 μM ADP in reaction tube. Aggregation traces shown are representative of at least three independent experiments.
Platelet aggregation assays were performed with myristoylated peptide mP5, myristoylated peptide of SEQ: ID NO: 87, or their respective scarmbled control peptides, as essentially described herein. Briefly, washed human platelets were preincubated with 25, 50, 100, 250, or 500 μM peptide solubilized in DMSO.

Gα13 binding to β3 = target: T1, Gα13 binding to β3 (Homo sapiens, UniProt P05106+Q14344); assay: Co-immunoprecipitation of β3 with Gα13 from platelet lysates; settings: platelets stimulated with thrombin, 2 mM RGDS
T1 construct: Proteins from platelet lysates were immunoprecipitated with control IgG or antibody to Gα13; The integrin αIIbβ3 was co-immunoprecipitated by anti-Gα13 antibody, but not control IgG, from platelet lysates; endogenous in cells; host or cells: washed human platelets (lysates)
T1 sequence (Q14344 1-377): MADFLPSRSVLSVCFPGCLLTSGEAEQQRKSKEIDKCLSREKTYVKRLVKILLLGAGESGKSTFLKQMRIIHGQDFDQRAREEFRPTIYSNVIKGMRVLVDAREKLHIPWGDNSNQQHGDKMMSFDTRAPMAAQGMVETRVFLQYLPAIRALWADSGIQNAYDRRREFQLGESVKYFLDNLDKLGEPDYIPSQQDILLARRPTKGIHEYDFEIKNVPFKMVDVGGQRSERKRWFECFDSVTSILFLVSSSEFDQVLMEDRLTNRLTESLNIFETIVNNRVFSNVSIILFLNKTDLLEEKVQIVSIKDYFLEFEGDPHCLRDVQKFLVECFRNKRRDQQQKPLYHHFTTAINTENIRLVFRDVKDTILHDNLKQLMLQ
T1 sequence (P05106 27-788): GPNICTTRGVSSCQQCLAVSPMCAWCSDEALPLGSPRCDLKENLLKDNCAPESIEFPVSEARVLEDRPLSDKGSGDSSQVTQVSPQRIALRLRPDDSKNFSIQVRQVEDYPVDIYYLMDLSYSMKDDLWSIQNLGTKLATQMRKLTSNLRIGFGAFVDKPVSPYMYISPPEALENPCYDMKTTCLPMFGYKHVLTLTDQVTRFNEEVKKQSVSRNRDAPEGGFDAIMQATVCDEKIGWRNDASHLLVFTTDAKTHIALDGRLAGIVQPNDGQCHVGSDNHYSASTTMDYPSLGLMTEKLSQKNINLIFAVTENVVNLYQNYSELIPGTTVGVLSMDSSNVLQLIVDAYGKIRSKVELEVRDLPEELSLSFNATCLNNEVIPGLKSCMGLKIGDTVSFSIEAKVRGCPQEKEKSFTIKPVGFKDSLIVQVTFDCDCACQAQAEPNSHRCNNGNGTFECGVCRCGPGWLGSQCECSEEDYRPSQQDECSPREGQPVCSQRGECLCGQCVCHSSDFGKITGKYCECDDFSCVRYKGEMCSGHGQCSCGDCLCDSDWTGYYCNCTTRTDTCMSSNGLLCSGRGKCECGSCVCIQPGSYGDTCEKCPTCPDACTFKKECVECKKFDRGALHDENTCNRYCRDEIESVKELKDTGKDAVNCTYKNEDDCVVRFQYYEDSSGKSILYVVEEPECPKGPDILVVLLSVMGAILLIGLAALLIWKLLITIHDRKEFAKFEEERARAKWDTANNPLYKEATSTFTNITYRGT
Procedure: As previously described (S7), cell lysates were incubated with 2 μg/ml of D57 (antibody to integrin αIIbβ3), LJP3 (antibody against GPIb), or mouse IgG, and further incubated with protein G-conjugated Sepharose beads. Cell lysates were also incubated with rabbit anti-Gα13 IgG antibody (1.5 μg/ml) or an equal amount of rabbit IgG and further incubated with protein A-conjugated Sepharose beads. After 3-6 washes with lysis buffer, immunoprecipitates were analyzed by SDS-polyacrylamide gel electrophoresis and Western blots with antibodies against β3 (MAb15), GPIb (anti-IbαC (S8)) or Gα13. In some experiments, 1 μM GDP, 1 μM GTPγS or 30 μM AlF4^− were added to the reaction to assess the effect of Gα13 activation on integrin binding. In other experiments, 250 μM mSRI or scrambled control peptide was incubated with platelet lysates prior to immunoprecipitation. GST bead pull down analysis was previously described (S7). Purified Gα13 was incubated with glutathione beads-bound to GST, GST-β1CD or GST-β3 CD at 4° C. overnight. Bead-bound proteins were analyzed by immunoblotting. For GST-β3CD cDNA construction, integrin-β3 cytoplasmic domain (716-762) cDNA was generated by PCR and cloned into pGEX-4T2 vector using Bam HI and Xho I restriction sites. The forward primer is 5′-[…]-3′ (SEQ ID NO: 48); the reverse primer is 5′-[…]-3′ (SEQ ID NO: 49). For GST-I31CD cDNA construction, β1 cytoplasmic domain (752-798) cDNA was amplified by PCR and cloned into pGEX-4T1 vector using EcoRI and Xho I restriction sites. The primer sequences are: (1) forward: 5′-[…]-3′ (SEQ ID NO: 50); (2) reverse: […]-3′ (SEQ ID NO: 51). GST, GST-β1CD and GST-β3CD were purified from BL21 (DE3) E. coli using glutathione-conjugated beads.
Cell lysates were incubated with rabbit anti-Gα13 IgG (1.5 μg/ml), anti-integrin β3 rabbit serum (5 μl/ml) or an equal amount of rabbit IgG or pre-immune serum at 4° C. overnight, and subsequently with protein A-conjugated Sepharose beads for 1 hour. For the integrin β3 clustering experiment, human platelets (3×10^8) were stimulated with 0.025 U/ml α-thrombin for 2 minutes at room temperature (to avoid platelet aggregation) with or without 2 mM RGDS, then incubated with 5 μl anti-integrin β3 8053 rabbit serum at room temperature for 1 hour, and 5 μg goat anti-rabbit secondary antibody for another 1 hour. Platelets were then solubilized in modified RIPA Buffer. For the un-clustering control and pre-immune serum control, cells were solubilized in modified RIPA Buffer first, than incubated with 5 μl 8053 serum or pre-immune serum. After 3-6 washes with lysis buffer, immunoprecipitates were analyzed by SDS-polyacrylamide gel electrophoresis and Western blots using antibodies against β3, talin, or Gα13. In some experiments, 500 μM control or inhibitor peptides, mP5, mP7 and mP13 were incubated with platelet lysates prior to immunoprecipitation, or 2 mM RGDS was added into washed human platelets before stimulation by 0.025 U/ml α-thrombin. GST bead pull down analysis was previously described^8. Purified Gα13 or MBP-talin head were incubated with glutathione beads-bound to GST or GST-β3CD at 4° C. overnight. Bead-bound proteins were analyzed by immunoblotting.

RhoA [5] = assay: RhoA activity assay (GST-RBD pull down) in platelets; assay type: cell-based, human; settings: platelets stimulated with thrombin, 2 mM RGDS
Procedure: as §1

What does the source list for 5′-GGAGATCGACAAATGCCTG [Gα13 siRNA #2]?
c-Src activation (c-Src): inhibited; activation of RhoA (RhoA [1]): accelerated; platelet spreading (mouse platelets): inhibited

For 5′-GTCCACCTTCCTGAAGCAG [Gα13 siRNA #1], which c-Src activation (c-Src) is on record?
Its c-Src activation is “inhibited”.

And the “activation of RhoA” value (RhoA [1])?
The value was “accelerated”.

And the platelet spreading (mouse platelets)?
The platelet spreading was “inhibited”.

Which results are given for `C[C@@H](N)[C@H]1CC[C@H](C(=O)Nc2ccncc2)CC1` [Y27632, reference compound]?
inhibitory effect of mP5 on platelet spreading (reversal) (human platelets [2]; platelets treated with mP5): reversed; inhibitory effect of mSRI on platelet spreading (reversal) (human platelets [2]; platelets treated with mSRI): reversed; inhibitory effect of Gα13 depletion on platelet spreading (reversal) (mouse platelets; Gα13-depleted mouse platelets): reversed

For `CC(=O)Oc1ccccc1C(=O)O` [aspirin, reference compound], which “platelet spreading on fibrinogen” value (mouse platelets; mouse platelets pre-incubated with 1 mM aspirin) is on record?
The value was “did not affect”.

With FEEERA as the compound, how does the time to occlusion [3] read?
The time to occlusion was “increased”.

And the “inhibition of platelet aggregation, doses compared to the mP5 peptide” value (human platelets [4]; 25-500 μM peptide in DMSO, 0.09 U/ml thrombin, washed human platelets)?
Its value is “inhibit platelet aggregation at lower doses”.

And the “concentration required for the maximal effect on in vitro platelet aggregation” value (human platelets [4]; preliminary dose-dependent study, DMSO solution vs micellar formulation)?
The value was 250 µM.

Which “Thrombin-stimulated binding of Gα13 to αIIbβ3” value (Gα13 binding to β3) does the source give for RGDS [reference compound] here?
The value was “inhibited”.

And the “RhoA inhibition simultaneous with thrombin-stimulated Gα13-αIIbβ3 binding” value (RhoA [5])?
The value was “inhibited”.
